Results as given in ChEMBL document CHEMBL5653615 (J Biol Chem, 2013).

Legend:
[1] = biological target: Receptor tyrosine-protein kinase erbB-4 (Homo sapiens) (UniProt Q15303); experiment: Inhibition of human ERBB4 at 1.82 nM by HotSpot assay relative to control
[2] = biological target: T1, Tyrosine-protein kinase ITK/TSK (Homo sapiens) (UniProt Q08881); experiment: Inhibition of human ITK at 1.82 nM by HotSpot assay relative to control
T1 sequence (whole entry): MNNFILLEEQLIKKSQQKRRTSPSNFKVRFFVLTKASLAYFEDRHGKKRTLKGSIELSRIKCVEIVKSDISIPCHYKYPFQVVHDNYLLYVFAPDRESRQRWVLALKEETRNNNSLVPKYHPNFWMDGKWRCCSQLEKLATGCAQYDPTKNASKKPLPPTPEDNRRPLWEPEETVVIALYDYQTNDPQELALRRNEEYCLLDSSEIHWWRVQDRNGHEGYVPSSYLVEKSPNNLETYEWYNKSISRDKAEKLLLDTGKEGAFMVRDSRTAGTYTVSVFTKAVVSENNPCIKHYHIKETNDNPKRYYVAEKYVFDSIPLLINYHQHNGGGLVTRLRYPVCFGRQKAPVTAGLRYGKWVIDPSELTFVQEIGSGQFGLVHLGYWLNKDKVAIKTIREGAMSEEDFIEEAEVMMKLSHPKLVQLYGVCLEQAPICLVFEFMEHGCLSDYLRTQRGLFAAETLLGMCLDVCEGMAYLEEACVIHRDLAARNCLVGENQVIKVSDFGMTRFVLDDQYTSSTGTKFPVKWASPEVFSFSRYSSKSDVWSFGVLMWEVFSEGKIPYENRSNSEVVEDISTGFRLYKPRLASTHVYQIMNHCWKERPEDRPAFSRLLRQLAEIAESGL

[3] = biological target: T2, Ephrin type-B receptor 1 (Homo sapiens) (UniProt P54762); experiment: Inhibition of human EPHB1 at 1.82 nM by HotSpot assay relative to control
T2 sequence (whole entry): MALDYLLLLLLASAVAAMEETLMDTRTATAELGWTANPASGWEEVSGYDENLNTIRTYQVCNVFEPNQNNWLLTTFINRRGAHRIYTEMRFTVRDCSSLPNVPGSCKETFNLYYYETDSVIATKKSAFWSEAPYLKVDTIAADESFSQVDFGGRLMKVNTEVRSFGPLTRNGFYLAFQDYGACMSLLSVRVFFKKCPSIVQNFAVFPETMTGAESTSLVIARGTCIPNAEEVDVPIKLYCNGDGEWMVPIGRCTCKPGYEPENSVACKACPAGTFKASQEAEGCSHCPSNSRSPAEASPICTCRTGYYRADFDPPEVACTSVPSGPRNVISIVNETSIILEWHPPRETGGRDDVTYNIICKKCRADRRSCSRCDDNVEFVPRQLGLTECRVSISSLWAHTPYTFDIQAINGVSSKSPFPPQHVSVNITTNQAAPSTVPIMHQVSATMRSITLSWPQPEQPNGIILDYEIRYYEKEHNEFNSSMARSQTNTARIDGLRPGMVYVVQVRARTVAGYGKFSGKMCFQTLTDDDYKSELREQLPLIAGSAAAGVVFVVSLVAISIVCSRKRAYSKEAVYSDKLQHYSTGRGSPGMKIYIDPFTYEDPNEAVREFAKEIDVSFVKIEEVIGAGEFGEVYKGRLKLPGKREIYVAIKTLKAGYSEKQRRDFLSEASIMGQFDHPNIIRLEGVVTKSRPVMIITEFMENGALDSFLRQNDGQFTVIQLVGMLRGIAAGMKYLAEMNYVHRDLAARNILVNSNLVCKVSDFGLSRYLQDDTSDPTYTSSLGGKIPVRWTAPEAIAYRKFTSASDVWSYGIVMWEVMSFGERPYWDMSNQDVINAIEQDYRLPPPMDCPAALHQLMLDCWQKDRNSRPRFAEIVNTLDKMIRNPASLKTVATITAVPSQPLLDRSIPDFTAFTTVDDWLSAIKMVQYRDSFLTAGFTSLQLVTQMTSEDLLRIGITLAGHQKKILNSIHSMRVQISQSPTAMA

[4] = biological target: Cyclin-dependent kinase 7/ cyclin H (Homo sapiens) (UniProt P51946+P50613); experiment: Inhibition of human CDK7/cyclin H at 1.82 nM by HotSpot assay relative to control; type: protein-complex assay
[5] = biological target: Serine/threonine-protein kinase N1 (Homo sapiens) (UniProt Q16512); experiment: Inhibition of human PRK1 at 1.82 nM by HotSpot assay relative to control
Serine/threonine-protein kinase N1 (Homo sapiens), sequence (Q16512 2-942 limits assumed): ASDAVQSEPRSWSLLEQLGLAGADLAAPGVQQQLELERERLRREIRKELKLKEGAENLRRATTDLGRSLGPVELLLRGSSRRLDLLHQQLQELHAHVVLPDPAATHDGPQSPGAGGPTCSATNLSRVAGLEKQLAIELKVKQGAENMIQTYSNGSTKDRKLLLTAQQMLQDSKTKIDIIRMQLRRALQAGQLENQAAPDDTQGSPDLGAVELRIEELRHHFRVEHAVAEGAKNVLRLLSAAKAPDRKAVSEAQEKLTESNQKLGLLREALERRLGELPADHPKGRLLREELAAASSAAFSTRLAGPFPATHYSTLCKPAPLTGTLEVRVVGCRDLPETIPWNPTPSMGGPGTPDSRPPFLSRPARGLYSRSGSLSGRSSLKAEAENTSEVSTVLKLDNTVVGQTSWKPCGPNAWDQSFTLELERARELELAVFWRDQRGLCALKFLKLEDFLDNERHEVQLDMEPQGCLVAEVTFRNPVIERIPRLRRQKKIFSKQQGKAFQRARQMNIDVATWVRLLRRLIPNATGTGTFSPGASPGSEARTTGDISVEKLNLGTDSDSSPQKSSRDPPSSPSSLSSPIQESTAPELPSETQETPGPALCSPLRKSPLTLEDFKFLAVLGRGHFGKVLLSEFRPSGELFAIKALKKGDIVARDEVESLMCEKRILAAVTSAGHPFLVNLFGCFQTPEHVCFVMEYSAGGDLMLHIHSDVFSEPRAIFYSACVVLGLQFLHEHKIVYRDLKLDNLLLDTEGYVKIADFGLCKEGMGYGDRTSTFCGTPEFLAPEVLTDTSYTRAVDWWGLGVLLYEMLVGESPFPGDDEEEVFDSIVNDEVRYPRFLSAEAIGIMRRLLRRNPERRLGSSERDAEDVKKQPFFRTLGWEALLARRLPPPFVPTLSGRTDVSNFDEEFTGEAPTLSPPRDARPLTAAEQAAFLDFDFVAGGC

[6] = biological target: Casein kinase I isoform delta (Homo sapiens) (UniProt P48730); experiment: Inhibition of human CK1d at 1.82 nM by HotSpot assay relative to control
Casein kinase I isoform delta (Homo sapiens), sequence (P48730 whole entry, looked up, canonical isoform): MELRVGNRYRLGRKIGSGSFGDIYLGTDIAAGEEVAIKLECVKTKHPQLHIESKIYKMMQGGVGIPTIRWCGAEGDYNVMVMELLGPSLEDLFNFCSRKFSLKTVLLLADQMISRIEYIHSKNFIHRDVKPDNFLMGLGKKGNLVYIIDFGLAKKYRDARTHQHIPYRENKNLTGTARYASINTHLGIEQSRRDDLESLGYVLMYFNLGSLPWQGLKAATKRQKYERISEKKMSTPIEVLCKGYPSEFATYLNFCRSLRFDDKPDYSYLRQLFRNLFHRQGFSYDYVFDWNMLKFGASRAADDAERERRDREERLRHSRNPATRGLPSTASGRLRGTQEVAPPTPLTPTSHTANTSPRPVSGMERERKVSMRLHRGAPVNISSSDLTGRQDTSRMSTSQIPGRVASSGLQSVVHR

[7] = biological target: T3, Serine/threonine-protein kinase 4 (Homo sapiens) (UniProt Q13043); experiment: Inhibition of human STK4 at 18.6 nM by HotSpot assay relative to control
T3 sequence (whole entry): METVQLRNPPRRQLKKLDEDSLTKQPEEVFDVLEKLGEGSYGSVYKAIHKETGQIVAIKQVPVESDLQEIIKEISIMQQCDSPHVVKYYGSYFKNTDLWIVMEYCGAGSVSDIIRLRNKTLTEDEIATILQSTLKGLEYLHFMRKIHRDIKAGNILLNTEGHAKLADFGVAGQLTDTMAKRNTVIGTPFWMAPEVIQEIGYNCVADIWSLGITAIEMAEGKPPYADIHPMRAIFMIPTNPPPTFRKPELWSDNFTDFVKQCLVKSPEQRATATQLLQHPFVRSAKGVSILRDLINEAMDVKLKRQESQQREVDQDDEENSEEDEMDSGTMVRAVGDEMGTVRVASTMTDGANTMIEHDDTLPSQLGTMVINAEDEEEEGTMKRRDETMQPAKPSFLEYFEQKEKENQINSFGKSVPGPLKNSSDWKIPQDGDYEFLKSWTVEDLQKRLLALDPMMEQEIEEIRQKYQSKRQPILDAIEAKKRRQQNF

[8] = biological target: Leukocyte tyrosine kinase receptor (Homo sapiens) (UniProt P29376); experiment: Inhibition of human LTK at 18.6 nM by HotSpot assay relative to control
Leukocyte tyrosine kinase receptor (Homo sapiens), sequence (P29376 whole entry): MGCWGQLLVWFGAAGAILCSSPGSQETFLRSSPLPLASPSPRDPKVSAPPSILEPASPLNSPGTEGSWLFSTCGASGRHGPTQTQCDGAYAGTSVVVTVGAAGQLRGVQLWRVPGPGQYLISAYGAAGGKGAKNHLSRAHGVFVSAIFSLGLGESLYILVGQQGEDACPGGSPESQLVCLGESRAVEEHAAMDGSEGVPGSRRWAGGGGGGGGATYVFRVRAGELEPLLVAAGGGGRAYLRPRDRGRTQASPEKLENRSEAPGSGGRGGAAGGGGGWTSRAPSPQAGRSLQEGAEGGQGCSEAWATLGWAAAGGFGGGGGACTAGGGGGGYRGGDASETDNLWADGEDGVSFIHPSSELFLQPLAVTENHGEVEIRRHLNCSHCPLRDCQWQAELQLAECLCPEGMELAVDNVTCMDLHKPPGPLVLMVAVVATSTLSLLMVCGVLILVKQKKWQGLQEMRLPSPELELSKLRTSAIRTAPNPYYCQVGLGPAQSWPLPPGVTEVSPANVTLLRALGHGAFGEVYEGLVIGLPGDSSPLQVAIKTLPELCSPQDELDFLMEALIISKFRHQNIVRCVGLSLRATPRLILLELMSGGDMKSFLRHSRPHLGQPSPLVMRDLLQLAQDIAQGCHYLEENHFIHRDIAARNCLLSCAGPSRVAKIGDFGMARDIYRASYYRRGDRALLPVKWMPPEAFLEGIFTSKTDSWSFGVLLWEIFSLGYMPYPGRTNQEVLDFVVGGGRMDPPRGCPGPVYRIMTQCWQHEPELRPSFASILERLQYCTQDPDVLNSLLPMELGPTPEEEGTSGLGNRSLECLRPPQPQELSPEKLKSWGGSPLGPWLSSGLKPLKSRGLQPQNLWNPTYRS

[9] = biological target: T4, Interleukin-1 receptor-associated kinase 4 (Homo sapiens) (UniProt Q9NWZ3); experiment: Inhibition of human IRAK4 at 18.6 nM by HotSpot assay relative to control
T4 sequence (whole entry): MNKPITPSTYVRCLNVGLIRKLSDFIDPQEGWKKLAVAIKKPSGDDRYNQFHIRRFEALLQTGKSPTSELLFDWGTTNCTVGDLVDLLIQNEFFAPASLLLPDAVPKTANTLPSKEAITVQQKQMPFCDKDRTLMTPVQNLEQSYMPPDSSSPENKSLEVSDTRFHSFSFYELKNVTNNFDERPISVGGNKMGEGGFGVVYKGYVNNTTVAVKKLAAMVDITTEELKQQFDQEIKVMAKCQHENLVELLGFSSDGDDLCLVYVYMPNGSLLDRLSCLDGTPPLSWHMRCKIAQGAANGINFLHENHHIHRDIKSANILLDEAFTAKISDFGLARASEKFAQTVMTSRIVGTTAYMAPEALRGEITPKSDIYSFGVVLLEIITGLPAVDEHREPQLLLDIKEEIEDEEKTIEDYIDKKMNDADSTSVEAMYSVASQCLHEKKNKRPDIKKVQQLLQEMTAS

Receptor tyrosine-protein kinase erbB-4 (Homo sapiens), sequence (Q15303 whole entry): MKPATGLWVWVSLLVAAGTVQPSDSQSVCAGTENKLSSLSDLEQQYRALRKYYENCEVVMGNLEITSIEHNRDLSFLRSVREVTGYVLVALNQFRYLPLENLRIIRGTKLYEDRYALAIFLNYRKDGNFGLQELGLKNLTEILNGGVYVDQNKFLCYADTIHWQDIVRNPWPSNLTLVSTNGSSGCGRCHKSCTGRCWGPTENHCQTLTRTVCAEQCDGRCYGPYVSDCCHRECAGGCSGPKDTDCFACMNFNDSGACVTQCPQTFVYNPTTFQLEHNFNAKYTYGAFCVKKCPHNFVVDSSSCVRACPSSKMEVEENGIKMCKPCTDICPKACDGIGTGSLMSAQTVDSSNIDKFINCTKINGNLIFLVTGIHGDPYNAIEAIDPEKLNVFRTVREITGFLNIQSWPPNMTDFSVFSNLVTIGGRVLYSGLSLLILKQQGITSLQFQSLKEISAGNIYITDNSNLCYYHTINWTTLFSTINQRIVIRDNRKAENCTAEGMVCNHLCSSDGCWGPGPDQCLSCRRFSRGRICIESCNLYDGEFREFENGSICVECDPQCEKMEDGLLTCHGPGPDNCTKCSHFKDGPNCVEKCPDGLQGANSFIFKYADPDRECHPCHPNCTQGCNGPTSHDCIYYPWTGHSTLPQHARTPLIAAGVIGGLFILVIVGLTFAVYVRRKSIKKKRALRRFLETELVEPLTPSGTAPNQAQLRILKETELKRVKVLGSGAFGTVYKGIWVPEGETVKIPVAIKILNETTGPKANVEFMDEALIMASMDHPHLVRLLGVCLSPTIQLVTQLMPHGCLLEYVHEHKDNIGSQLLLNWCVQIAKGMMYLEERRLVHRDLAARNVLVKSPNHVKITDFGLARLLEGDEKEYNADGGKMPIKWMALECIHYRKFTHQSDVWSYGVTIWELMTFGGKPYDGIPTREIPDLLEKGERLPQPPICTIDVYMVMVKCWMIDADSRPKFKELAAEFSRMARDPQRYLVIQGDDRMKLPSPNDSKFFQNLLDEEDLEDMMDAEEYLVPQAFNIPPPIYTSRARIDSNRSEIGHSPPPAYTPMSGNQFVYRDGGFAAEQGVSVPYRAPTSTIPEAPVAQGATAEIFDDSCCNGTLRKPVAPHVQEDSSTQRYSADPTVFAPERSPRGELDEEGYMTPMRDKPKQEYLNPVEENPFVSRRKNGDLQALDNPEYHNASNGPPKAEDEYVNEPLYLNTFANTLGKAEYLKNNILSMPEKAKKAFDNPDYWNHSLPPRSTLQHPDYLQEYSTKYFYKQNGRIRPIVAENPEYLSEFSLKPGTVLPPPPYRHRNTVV

Question: With `C[C@@]1(C(=O)Nc2ccc(F)nc2)CCCN1c1nc(Nc2cc(C3CC3)n[nH]2)c2cccn2n1` as the compound, how does the inhibition [1] read?
Answer: Its inhibition is 3.49%.

Question: What about the inhibition [2] of the same compound?
Answer: The inhibition was -7.19%.

Question: And the inhibition [3]?
Answer: Its inhibition is 2.28%.

Question: What about the inhibition [4] of the same compound?
Answer: The inhibition was -3.28%.

Question: What about the inhibition [5] of the same compound?
Answer: Its inhibition is -8.35%.

Question: What about the inhibition [6] of the same compound?
Answer: Its inhibition is 0.92%.

Question: For `C[C@]1(O)C[C@@H](c2nc(-c3ccc4ccc(-c5ccccc5)nc4c3)c3c(N)nccn32)C1`, which inhibition [7] is on record?
Answer: The inhibition was 6.04%.

Question: And the inhibition [8]?
Answer: Its inhibition is -0.44%.

Question: What about the inhibition [9] of the same compound?
Answer: The inhibition was -2.53%.
